Test results as given in ChEMBL document CHEMBL4020744 (Bioorg Med Chem Lett, 2017).

Legend:
Ebolavirus [1] = assay: Antiviral activity against Sudan virus Gulu infected in human HeLa cells preincubated with cells for 2 hrs followed by viral infection measured after 48 hrs by immunostaining based assay; type: functional, cell-based, Sudan ebolavirus; details: Orthoebolavirus
[2] = Cytotoxicity against human HeLa cells after 2 hrs by Draq staining based assay; type: cell-based
Ebolavirus [3] = assay: Antiviral activity against Ebolavirus Makona infected in human HeLa cells preincubated for 2 hrs followed by viral infection measured after 15 to 20 hrs by Draq5 staining based assay; type: functional, cell-based, Zaire ebolavirus Makona; details: Orthoebolavirus
Marburgvirus = assay: Antiviral activity against Marburg virus Ci67 infected in human HeLa cells preincubated for 2 hrs followed by viral infection measured after 15 to 20 hrs by Draq staining based assay; type: functional, cell-based, Lake Victoria marburgvirus - Ci67; details: Orthomarburgvirus
Lassa virus = assay: Antiviral activity against Lassa virus infected in human HuH7 cells pretreated for 2 to 3 hrs followed by viral infection measured after 3 days by fluorescence assay; type: functional, cell-based; details: Mammarenavirus lassaense, Huh-7
Huh-7 = assay: Cytotoxicity against human HuH7 cells after 2 to 3 hrs by CellTiter-Glo assay; type: cell-based
Rift Valley fever virus = assay: Antiviral activity against Rift Valley fever virus infected in human HeLa cells preincubated for 2 to 3 hrs followed by viral infection measured after 3 days by fluorescence assay; type: functional, cell-based

Compound	EC50 (Ebolavirus [1]) [µM]	CC50 at 2 h [2] [µM]	EC50 (Ebolavirus [3]) [µM]	EC50 (Marburgvirus) [µM]	EC50 (Lassa virus) [µM]	CC50 (Huh-7) [µM]	EC50 (Rift Valley fever virus) [µM]
COc1nc(N)ncc1-c1cn(COCCOC(C)=O)cn1	20	> 100	44	70			
CCC(CC)COC(=O)[C@H](C)N[P@](=O)(OCCOCn1cnc(-c2cnc(N)nc2OC)c1)Oc1ccccc1	7	> 100	29	62	> 50	> 50	> 50
COc1nc(N)ncc1-c1cn(COCCO)cn1	> 100	> 100	> 100	> 100	> 50	> 50	> 50
